Structures are written as SMILES.

This assay has as its target T1, PH ([325-451]ASAP1) (Mus musculus, UniProt Q9QWY8).
T1 sequence (Q9QWY8 325-451): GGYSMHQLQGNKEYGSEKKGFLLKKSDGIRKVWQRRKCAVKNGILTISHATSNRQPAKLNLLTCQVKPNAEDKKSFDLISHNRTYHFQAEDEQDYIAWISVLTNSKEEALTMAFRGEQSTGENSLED
The assay can be described thus: isothermal titration calorimetry. Type of assay: binding. A general note: ITC needs no label: the signal is the heat of the interaction.

For `O=P(O)(O)O[C@@H]1[C@H](O)[C@H](O)[C@@H](OP(=O)(O)O)[C@H](OP(=O)(O)O)[C@H]1O` [IP3], the equilibrium dissociation constant (Kd) (usually the free concentration of one partner at which half of the binding sites on the other are occupied at equilibrium, for simple one-to-one binding) was 75 ± 15 µM.

For the origin of these results see PMC2574850 (Cellular signalling, 2008).
